ChEMBL document CHEMBL1156685, “Synthesis and structure-activity relationships of N-6 substituted analogues of 9-hydroxy-4-phenylpyrrolo[3,4-c]carbazole-1,3(2H,6H)-diones as inhibitors of Wee1 and Chk1 checkpoint kinases” (Eur J Med Chem, 2008)
Values after ≈ are worked out from the molar mass of the structure shown.

How the values were obtained:
[1] = target: Proto-oncogene tyrosine-protein kinase Src (Homo sapiens, UniProt P12931)
physchem = conditions: buffer
Description: Aqueous solubility of the compound

[2] = target: Cyclin-dependent kinase 1/cyclin B1 (Homo sapiens, UniProt P06493); format: cell-based, HT-29
Description: Inhibition of Cdc2/cyclin B assessed as inhibition of histone H1 phosphorylation in human HT29 cells

Wee1-like protein kinase = Wee1-like protein kinase (Homo sapiens, UniProt P30291)
Description: Inhibition of human Wee1 assessed as polyornithine-tyrosine copolymer phosphorylation

[3] = target: Cyclin-dependent kinase 1 (Homo sapiens, UniProt P06493); format: cell-based; conditions: ht-29
Chain of Cyclin-dependent kinase 1 (P06493 whole entry): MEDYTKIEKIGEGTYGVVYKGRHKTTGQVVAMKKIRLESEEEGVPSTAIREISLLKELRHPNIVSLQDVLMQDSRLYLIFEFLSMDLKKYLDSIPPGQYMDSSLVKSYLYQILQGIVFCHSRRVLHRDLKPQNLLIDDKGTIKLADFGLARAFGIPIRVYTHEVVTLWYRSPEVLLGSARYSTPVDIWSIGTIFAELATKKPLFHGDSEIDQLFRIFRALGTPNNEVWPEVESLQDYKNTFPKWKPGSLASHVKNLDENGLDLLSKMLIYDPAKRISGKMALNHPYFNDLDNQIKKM
Description: Inhibition of Cdc2 Tyr15 phosphorylation in human HT29 cells by Western blot

Chain of Proto-oncogene tyrosine-protein kinase Src (P12931 2-536 limits assumed): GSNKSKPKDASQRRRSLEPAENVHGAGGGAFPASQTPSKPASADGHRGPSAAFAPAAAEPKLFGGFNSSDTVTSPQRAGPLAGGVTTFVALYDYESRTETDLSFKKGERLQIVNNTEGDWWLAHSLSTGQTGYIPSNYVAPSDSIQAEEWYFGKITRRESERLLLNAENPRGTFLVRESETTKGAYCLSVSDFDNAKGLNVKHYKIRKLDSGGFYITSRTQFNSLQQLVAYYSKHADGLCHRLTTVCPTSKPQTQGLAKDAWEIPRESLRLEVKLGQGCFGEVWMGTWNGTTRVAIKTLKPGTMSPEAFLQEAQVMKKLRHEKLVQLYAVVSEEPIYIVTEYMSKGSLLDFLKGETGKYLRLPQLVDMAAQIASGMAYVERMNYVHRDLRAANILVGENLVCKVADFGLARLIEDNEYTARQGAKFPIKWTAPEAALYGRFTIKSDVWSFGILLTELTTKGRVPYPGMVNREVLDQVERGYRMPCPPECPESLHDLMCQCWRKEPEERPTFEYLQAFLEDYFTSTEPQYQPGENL
Chain of Wee1-like protein kinase (P30291 whole entry): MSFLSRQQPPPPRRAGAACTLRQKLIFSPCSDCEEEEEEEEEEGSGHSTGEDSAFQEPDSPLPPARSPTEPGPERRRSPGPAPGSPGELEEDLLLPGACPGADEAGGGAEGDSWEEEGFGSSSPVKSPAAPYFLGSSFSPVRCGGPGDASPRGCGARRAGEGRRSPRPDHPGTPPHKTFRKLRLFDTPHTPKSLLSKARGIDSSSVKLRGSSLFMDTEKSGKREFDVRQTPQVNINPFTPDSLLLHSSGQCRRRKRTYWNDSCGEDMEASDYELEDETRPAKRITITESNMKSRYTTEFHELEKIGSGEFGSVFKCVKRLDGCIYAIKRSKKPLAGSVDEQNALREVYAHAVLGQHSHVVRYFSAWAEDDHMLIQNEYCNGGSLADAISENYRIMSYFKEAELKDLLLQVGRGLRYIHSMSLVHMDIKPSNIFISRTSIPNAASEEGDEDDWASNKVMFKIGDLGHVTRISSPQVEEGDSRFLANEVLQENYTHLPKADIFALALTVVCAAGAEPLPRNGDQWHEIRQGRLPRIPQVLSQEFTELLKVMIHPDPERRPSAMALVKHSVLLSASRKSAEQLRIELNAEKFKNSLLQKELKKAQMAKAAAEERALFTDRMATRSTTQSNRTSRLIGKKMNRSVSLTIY
Chain of Cyclin-dependent kinase 1/cyclin B1 (P06493 whole entry): as the sequence (P06493 whole entry) above
Chain of Cyclin-dependent kinase 1/cyclin B1 (P14635 whole entry, further chain): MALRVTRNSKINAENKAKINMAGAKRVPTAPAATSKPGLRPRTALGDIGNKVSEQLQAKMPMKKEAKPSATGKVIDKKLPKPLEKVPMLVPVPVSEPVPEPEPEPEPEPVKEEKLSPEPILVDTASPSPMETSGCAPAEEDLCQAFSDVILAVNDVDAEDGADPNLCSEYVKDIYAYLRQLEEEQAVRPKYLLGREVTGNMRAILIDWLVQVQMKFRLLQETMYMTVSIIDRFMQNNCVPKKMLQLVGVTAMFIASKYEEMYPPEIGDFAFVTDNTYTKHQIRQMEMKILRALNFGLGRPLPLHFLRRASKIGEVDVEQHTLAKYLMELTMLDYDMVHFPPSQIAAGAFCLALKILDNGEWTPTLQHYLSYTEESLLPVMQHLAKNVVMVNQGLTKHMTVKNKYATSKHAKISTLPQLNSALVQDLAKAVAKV

| SMILES | IC50 [1] [nM] | solubility (physchem) [µg/mL] | IC50 [2] [nM] | IC50 (Wee1-like protein kinase) [nM] | IC50 [3] [nM] |
| --- | --- | --- | --- | --- | --- |
| CN1CCN(CCCn2c3ccc(O)cc3c3c4c(c(-c5c(Cl)cccc5Cl)cc32)C(=O)NC4=O)CC1 | – | – | – | 62 | – |
| O=C1NC(=O)c2c1c(-c1ccccc1)cc1c2c2cc(O)ccc2n1CCCNc1ccccc1 | – | – | – | 93 | – |
| CNCCCn1c2ccc(O)cc2c2c3c(c(-c4c(Cl)cccc4Cl)cc21)C(=O)NC3=O | – | 7.3 (≈ 15.6 µM) | – | 110 | – |
| CN(C)CCCn1c2ccc(O)cc2c2c3c(c(-c4ccccc4Cl)cc21)C(=O)NC3=O | – | – | – | 100 | – |
| CNCCCn1c2ccc(O)cc2c2c3c(c(-c4ccccc4)cc21)C(=O)NC3=O | – | – | – | 280 | – |
| O=C1NC(=O)c2c1c(-c1ccccc1Cl)cc1c2c2cc(O)ccc2n1CCCNc1ccccc1 | – | – | – | 74 | – |
| O=C(O)CCn1c2ccc(O)cc2c2c3c(c(-c4c(Cl)cccc4Cl)cc21)C(=O)NC3=O | – | 33 (≈ 70.3 µM) | – | 390 | – |
| CS(=O)(=O)NC(=O)CCn1c2ccc(O)cc2c2c3c(c(-c4ccccc4Cl)cc21)C(=O)NC3=O | – | > 60 | > 3400 | 12 | 250 |
| CN(C)CCNC(=O)CCn1c2ccc(O)cc2c2c3c(c(-c4c(Cl)cccc4Cl)cc21)C(=O)NC3=O | – | > 60 | – | 14 | – |
| O=C1NC(=O)c2c1c(-c1c(Cl)cccc1Cl)cc1c2c2cc(O)ccc2n1CCCNc1ccccc1 | – | – | – | 67 | – |
| CN(C)CCNC(=O)CCn1c2ccc(O)cc2c2c3c(c(-c4ccccc4Cl)cc21)C(=O)NC3=O | – | > 60 | 1300 | 35 | < 250 |
| NC(=O)CCn1c2ccc(O)cc2c2c3c(c(-c4c(Cl)cccc4Cl)cc21)C(=O)NC3=O | – | < 3 | – | 330 | – |
| O=C1NC(=O)c2c1c(-c1ccccc1)cc1c2c2cc(O)ccc2n1CCO | – | – | – | 25 | – |
| O=C1NC(=O)c2c1c(-c1c(Cl)cccc1Cl)cc1c2c2cc(O)ccc2n1CCCO | – | < 3 | – | 7 | – |
| O=C1NC(=O)c2c1c(-c1ccccc1Cl)cc1c2c2cc(O)ccc2n1CCCc1nnn[nH]1 | – | > 60 | > 3400 | 16 | > 10000 |
| NC(=O)CCn1c2ccc(O)cc2c2c3c(c(-c4ccccc4Cl)cc21)C(=O)NC3=O | – | – | > 3400 | 6 | > 10000 |
| O=C1NC(=O)c2c1c(-c1ccccc1Cl)cc1c2c2cc(O)ccc2n1CCCn1ccnc1 | – | – | – | 54 | – |

| SMILES | IC50 [1] [nM] | solubility (physchem) [µg/mL] | IC50 [2] [nM] | IC50 (Wee1-like protein kinase) [nM] | IC50 [3] [nM] |
| --- | --- | --- | --- | --- | --- |
| O=C1NC(=O)c2c1c(-c1c(Cl)cccc1Cl)cc1c2c2cc(O)ccc2n1CCCN1CCOCC1 | – | – | – | 64 | – |
| CN(C)CCn1c2ccc(O)cc2c2c3c(c(-c4ccccc4Cl)cc21)C(=O)NC3=O | – | 8.5 (≈ 19.6 µM) | – | 96 | – |
| CN(C)CCn1c2ccc(O)cc2c2c3c(c(-c4c(Cl)cccc4Cl)cc21)C(=O)NC3=O | – | 7.4 (≈ 15.8 µM) | – | 170 | – |
| COC(=O)CCn1c2ccc(O)cc2c2c3c(c(-c4ccccc4Cl)cc21)C(=O)NC3=O | – | < 3 | – | 30 | – |
| COCCCn1c2ccc(O)cc2c2c3c(c(-c4ccccc4Cl)cc21)C(=O)NC3=O | – | < 3 | – | 27 | – |
| CN1CCN(CCCn2c3ccc(O)cc3c3c4c(c(-c5ccccc5Cl)cc32)C(=O)NC4=O)CC1 | – | – | – | 82 | – |
| CN(C)CCCn1c2ccc(O)cc2c2c3c(c(-c4c(Cl)cccc4Cl)cc21)C(=O)NC3=O | – | – | – | 140 | – |
| CNCCCn1c2ccc(O)cc2c2c3c(c(-c4ccccc4Cl)cc21)C(=O)NC3=O | – | 5.2 (≈ 12 µM) | 710 | 69 | < 250 |
| N#CCCn1c2ccc(O)cc2c2c3c(c(-c4ccccc4Cl)cc21)C(=O)NC3=O | – | < 3 | > 3400 | 15 | < 250 |
| O=C1NC(=O)c2c1c(-c1ccccc1Cl)cc1c2c2cc(O)ccc2n1CCO | – | < 3 | – | 45 | – |
| O=C(O)CCCn1c2ccc(O)cc2c2c3c(c(-c4ccccc4Cl)cc21)C(=O)NC3=O | – | – | > 3400 | 13 | > 10000 |
| O=C1NC(=O)c2c1c(-c1ccccc1Cl)cc1c2c2cc(O)ccc2n1CCc1nnn[nH]1 | – | > 60 | > 3400 | 21 | 2500 |
| O=C(CCn1c2ccc(O)cc2c2c3c(c(-c4ccccc4Cl)cc21)C(=O)NC3=O)NS(=O)(=O)c1ccccc1 | – | 47 (≈ 81.9 µM) | – | 7 | – |
| CNCC(O)Cn1c2ccc(O)cc2c2c3c(c(-c4ccccc4Cl)cc21)C(=O)NC3=O (configuration not stated) | – | – | – | 57 | – |
| O=C1NC(=O)c2c1c(-c1c(Cl)cccc1Cl)cc1c2c2cc(O)ccc2n1CCN1CCOCC1 | – | – | – | 110 | – |
| N#CCCCn1c2ccc(O)cc2c2c3c(c(-c4ccccc4Cl)cc21)C(=O)NC3=O | – | – | – | 33 | – |
| O=C1NC(=O)c2c1c(-c1ccccc1Cl)cc1c2c2cc(O)ccc2n1CCn1ccnc1 | – | – | – | 92 | – |

The next lines start with results.

| IC50 [1] [nM] | solubility (physchem) [µg/mL] | SMILES | IC50 [2] [nM] | IC50 (Wee1-like protein kinase) [nM] | IC50 [3] [nM] |
| --- | --- | --- | --- | --- | --- |
| > 50000 | – | O=C1NC(=O)c2c1c(-c1ccccc1Cl)cc1[nH]c3ccc(O)cc3c21 | – | – | – |
| – | < 3 | O=C1NC(=O)c2c1c(-c1ccccc1Cl)cc1c2c2cc(O)ccc2n1CCCO | 650 | – | – |
| – | 3.2 (≈ 6.33 µM) | O=C1NC(=O)c2c1c(-c1c(Cl)cccc1Cl)cc1c2c2cc(O)ccc2n1CCCn1ccnc1 | – | 59 | – |
| 17000 | 28 (≈ 59.8 µM) | CN1CCN(CCCn2c3ccc(O)cc3c3c4c(c(-c5ccccc5)cc32)C(=O)NC4=O)CC1 | – | 300 | – |
| – | > 60 | O=C(O)CCn1c2ccc(O)cc2c2c3c(c(-c4ccccc4Cl)cc21)C(=O)NC3=O | – | – | – |
| 13000 | > 60 | O=C(O)CCn1c2ccc(O)cc2c2c3c(c(-c4ccccc4)cc21)C(=O)NC3=O | – | – | – |
| – | < 3 | O=C1NC(=O)c2c1c(-c1ccccc1)cc1c2c2cc(O)ccc2n1CCCO | – | 200 | – |
| – | < 3 | O=C1NC(=O)c2c1c(-c1c(Cl)cccc1Cl)cc1c2c2cc(O)ccc2n1CCO | – | – | – |
| – | 18 (≈ 35.6 µM) | O=C1NC(=O)c2c1c(-c1ccccc1Cl)cc1c2c2cc(O)ccc2n1CC[S+]([O-])c1nnc[nH]1 (configuration not stated) | – | 9 | – |
| – | 16 (≈ 30.7 µM) | O=C1NC(=O)c2c1c(-c1ccccc1Cl)cc1c2c2cc(O)ccc2n1CCS(=O)(=O)c1nnc[nH]1 | – | 19 | – |
| 27000 | – | O=C1NC(=O)c2c1c(-c1ccccc1)cc1c2c2cc(O)ccc2n1CCn1ccnc1 | – | – | – |
| – | < 3 | O=C1NC(=O)c2c1c(-c1c(Cl)cccc1Cl)cc1c2c2cc(O)ccc2n1CCn1ccnc1 | – | 120 | – |
| 5600 | – | CN(C)CCCn1c2ccc(O)cc2c2c3c(c(-c4ccccc4)cc21)C(=O)NC3=O | – | 360 | – |
| 46000 | < 3 | O=C1NC(=O)c2c1c(-c1ccccc1)cc1c2c2cc(O)ccc2n1CCCN1CCOCC1 | – | 290 | – |
| – | < 3 | NC(=O)CCn1c2ccc(O)cc2c2c3c(c(-c4ccccc4)cc21)C(=O)NC3=O | – | 21 | – |
| – | < 3 | COc1ccccc1-c1cc2c(c3c1C(=O)NC3=O)c1cc(O)ccc1n2CCCO | – | – | – |
| – | 3 (≈ 6.12 µM) | O=C1NC(=O)c2c1c(-c1ccccc1Cl)cc1c2c2cc(O)ccc2n1CCSc1nnc[nH]1 | – | 24 | – |
| – | > 60 | CN(C)CC(O)Cn1c2ccc(O)cc2c2c3c(c(-c4ccccc4Cl)cc21)C(=O)NC3=O (configuration not stated) | > 3400 | 58 | 250 |
| – | > 60 | CN(C)CCNC(=O)CCn1c2ccc(O)cc2c2c3c(c(-c4ccccc4)cc21)C(=O)NC3=O | – | – | – |
| – | < 3 | O=C1NC(=O)c2c1c(-c1ccccc1)cc1c2c2cc(O)ccc2n1CCCn1ccnc1 | – | 110 | – |
| 31000 | 18 (≈ 45.1 µM) | CN(C)CCn1c2ccc(O)cc2c2c3c(c(-c4ccccc4)cc21)C(=O)NC3=O | – | 200 | – |
| 2500 | 12 (≈ 27.5 µM) | O=C1NC(=O)c2c1c(-c1ccccc1Cl)cc1c2c2cc(O)ccc2n1CC(O)CO (configuration not stated) | – | 23 | – |
| – | 14 (≈ 31.7 µM) | O=C1NC(=O)c2c1c(-c1ccccc1)cc1c2c2cc(O)ccc2n1CCN1CCOCC1 | – | 140 | – |
| – | < 3 | O=C1NC(=O)c2c1c(-c1ccccc1Cl)cc1c2c2cc(O)ccc2n1CCN1CCOCC1 | 1700 | 64 | 250 |
